For data set [1] the following is noted: species, matrix, method and reference not given; cited from earlier work.
The next data set concerns SSTR5-tGFP. Put plainly: Receptor internalization in U2OS-transfected cells (SSTR5-tGFP). Type of data set: cell-based, human. To be noted: 7 h, high-content imaging, n = 3, method: percentage of activity relative to SST28 10^−6 M. The protocol:
Compounds were tested at five concentrations (10^−5, 10^−6, 10^−7, 10^−8, 10^−9 M) in comparison to untreated cells.
SST agonists were added to U2OS recombinant cell lines in OptiMeM medium (Life technologies 51985-034, Monza, Italy) for 3 h (SSTR2, SSTR3) or 7 h (SSTR5) (n = 3). After formaldehyde fixation, nuclei were stained using DAPI (2 µg/mL), and the fluorescence was measured with BD Pathway 855 High-Content Bioimager from Becton Dickinson. The receptor internalization was calculated using AttoVision 1.6 Software. Approximately 500 cells per field were analyzed. […]
(Invitrogen, Carlsbad, CA). Stable transfectants were selected in the presence of 500 µg/ml G-418. […]
% picric acid in phosphate buﬀer (pH 6.9) for 30 minutes at room temperature (RT). […]
3.2. U2OS human cell lines transfected with human receptors (SSTR2-tGFP, SSTR3-tGFP,
Compounds were tested at ﬁve d iﬀerent concentrations (10-5, 10-6, 10-7, 10-8, 10^-9 M) in comparison to untreated cells.
U2OS recombinant cell lines were obtained from Innoprot (Derio, Spain). […] Nuclei were stained using DAPI (2 μg/ml) and the ﬂuorescence was measured using a BD Pathway 855 High-Content Bioimager from Becton Dickinson. The receptor internalization was calculated using AttoVision Software. […]
Agonist activity of test compounds was calculated relatively to positive control

For the next data set, the target named is T1, hSSTR3 (Homo sapiens, UniProt P32745).
T1 construct: expressed in transfected cells; host or cells: CHO-K1 (membranes)
T1 sequence (P32745 whole entry): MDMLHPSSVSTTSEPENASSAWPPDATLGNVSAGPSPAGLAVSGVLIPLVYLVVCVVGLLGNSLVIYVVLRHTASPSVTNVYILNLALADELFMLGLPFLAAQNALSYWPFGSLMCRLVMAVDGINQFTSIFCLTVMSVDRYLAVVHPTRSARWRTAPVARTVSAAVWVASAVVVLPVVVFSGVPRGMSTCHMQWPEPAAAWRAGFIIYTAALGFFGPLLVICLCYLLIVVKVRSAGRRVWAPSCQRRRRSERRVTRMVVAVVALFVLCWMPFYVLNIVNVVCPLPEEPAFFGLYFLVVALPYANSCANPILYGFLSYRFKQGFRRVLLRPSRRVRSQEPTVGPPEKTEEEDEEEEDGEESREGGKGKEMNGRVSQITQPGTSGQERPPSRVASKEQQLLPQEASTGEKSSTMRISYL
The data set can be described thus: Radioligand binding to human SSTR3. To be noted: from binding IC50.

For data set [2], the system named is GHRH-stimulated GH release, primary cultures of rat anterior pituitary cells. The data set can be described thus: Inhibition of GHRH-induced GH release in rat pituitary primary cell culture. Type of data set: cell-based. The note with it: rat GHRH 3x10^-9 M, 3 h 37 °C, GH by ELISA.
Data set [3] relates to NFPAs of MENX (homozygous mutant) rats. Put plainly: In vivo efficacy against endogenous NFPAs in MENX rats. Further details: species or system rat. To be noted: 12.5 mg/kg s.c. every 14 days, 56 days. The protocol:
Tumor monitoring in rats was conducted using MRI at day 0 (pretreatment) and every 14 days post-treatment (days 14, 28, 42, 56). MRI was performed on a 7T preclinical scanner (Bruker BioSpin MRI GmbH, Ettlingen, Germany) using previously published procedures suitable to visualize the rat pituitary tumors. In the T2 weighted datasets, regions of interest (ROIs) were manually segmented around the adenomas in every slice where they appeared; tumor volumes were finally calculated from the data (area of particular ROIs and slice thickness) using an implemented algorithm in Osirix/Horos (Pixmeo SARL/Horos Project) as previously described.
RNA was extracted using RNeasy Mini Kit (Qiagen, Cluj-Napoca, Romania) following the manufacturer’s instructions. Total RNA concentration and purity was assessed using Nanodrop 2000 spectrophotometer (Thermo Scientific, Waltham, MA, USA). Total RNA was retrotranscribed using random hexamer primers and the cDNA First Strand Synthesis kit (Thermo Scientific). Details regarding the quantitative PCR (qPCR) procedure used to determine the absolute expression levels of the different somatostatin receptor genes (Sstr1-5) have been previously reported. Specific sets of primers for these genes have been previously validated and reported. To control for the amount of RNA and for the efficiency of the retrotranscription reaction, mRNA copy numbers of the different transcripts analyzed were adjusted by β-actin (ACTB) expression (used as housekeeping gene).
Ki67-positive tumor cells per 100,000 µm^2 were counted under the microscope in 3 independent areas for each tumor sample.
Linear mixed-effects (LME) models were applied for longitudinal analysis of tumor volume growth, with absolute tumor volume at day 0 used for scaling subsequent measurements of each individual, as previously reported. Relative volumes were transformed by natural logarithms for use as model outcomes in order to meet the normal distributional assumptions. Linear and quadratic growth predictors and interactions were considered for significance testing, performed by the F-test, with results presented as the mean ± standard error of the mean (SEM). Statistical significance between two series of data was determined by one-way ANOVA. A p value < 0.05 was considered statistically significant.

The test system of a further data set is HA-SSTR3. The data set can be described thus: SSTR3 phosphorylation, Western blot with phosphosite-specific antibodies, HEK293-transfected. The data set is classed as cell-based, human. Also noted: key: + = very low activity; ++ = low activity; +++ = high activity; ++++ = very high activity. To be noted: HEK293 stably expressing HA-SSTR3, agonist 5 min 37 °C. The protocol:
Western blot analysis was performed as previously described.
Next, the activation of human SSTRs induced by SSAs was tested by Western blot using phosphosite-specific antibodies directed against the following residues: S341/pS343 for SSTR2; S337/T341 for SSTR3; T333 for SSTR5 [31].
4.1. Western blot analysis
Western blot analysis was performed as previously described.7–9 Brieﬂy, HEK293 cells stably expressing the human somatostatin receptors were seeded onto poly-L-lysine-coated 60 mm dishes and grown to 90 % confluency. […]
PierceTM HA epitope tag antibody beads (Thermo Scientific, Rockford, USA) were used to enrich HA-tagged somatostatin receptors or wheat germ lectin-agarose beads for no-tagged somatostatin receptors. To elute proteins from the beads, the samples were incubated in SDS sample buffer for 20 min at 60°C. Supernatants were separated from the beads, loaded on 8% SDS polyacrylamide gels and immunoblotted onto nitrocellulose membranes afterwards. After blocking, membranes were incubated with phosphorylation state-speciﬁc somatostatin receptor antibodies: pS337/pT341-SST3 (7TM0357A), […]
Antibodies GmbH, Jena, Germany) at a dilution of 1:1000 at 4°C overnight. Membranes were incubated in HRP-linked secondary antibody for 2 hours, followed by detection using a chemiluminescence system (90 mM p-coumaric-acid, 250 mM luminol, 30% […]
according to the manufacturer’s instructions.

Procedure for hSSTR3: Data were analyzed with XLfit (IDBS) software (version 5.3.1.3) using nonlinear regression applied to a sigmoidal dose–response model. Agonist activity of test compounds is expressed as a percentage of the activity of the reference agonist at its EC100 concentration.
After 60 min at 25°C in a water bath, samples were ﬁltered over GF/B ﬁlters (Perkin
Elmer, 6005177) presoaked in 0.5% PEI for 2h at RT) with a Filtermate Harvester (Perkin
Elmer ). Filters were washed 6 times with 0.5 ml of ice-cold ﬁltration buﬀer, incubated 15
min. on an orbital shaker with 50 µl of Microscint 20 (Packard) and counted for
radioactivity with a TopCountTM or MicroBetaTM for 1 min/well.
Dose-response curve were performed for each SSTR (agonist range 10-11 – 3x10-7 M),
Each point was performed in duplicate2,3
Dose-response data from test compounds were analysed with XLﬁt (IDBS) software
using nonlinear regression applied to a sigmoidal dose-response model.
Agonist activity of test compounds is expressed as a percentage of the activity of the
reference agonist at its EC100 concentration.

In the case of `COc1cc2cccc(OC)c2cc1C[C@H]1NC(=O)[C@H](Cc2ccc(O)cc2)NC(=O)[C@@H]2C[C@@H](OC(=O)NCCN)CN2C(=O)[C@H](Cc2ccccc2)NC(=O)[C@H](Cc2ccc(OCc3ccccc3)cc2)NC(=O)[C@H](CCCCN)NC1=O` [ITF2984, Cyclo[Tyr(Bn)-Phe-Pro(4-OCONH(CH2)2NH2)-Tyr-3,8-diMeONal-Lys]], the Half-time life in data set [1] is recorded as 18 h. Also, the “Receptor internalization in U2OS-transfected cells, SSTR5, at 10^−5 M” value with SSTR5-tGFP (10^−5 M) was 34.6. In the data set on SSTR5-tGFP (10^−6 M), the “Receptor internalization in U2OS-transfected cells, SSTR5, at 10^−6 M (value in brackets)” value was determined as 42.0. For the same compound, the “improved affinity for SSTR3 compared to Octreotide or Pasireotide” value on hSSTR3 is 10 fold. Moreover, the “GH release (inhibition ≅ 1 nM)” value in data set [2] was 50%. Besides, the “change in number of Ki67-positive cells versus placebo, female rats” value in data set [3] (female MENX rats) was −57%. Further, the “tumor volume during treatment (MRI), female rats” value in data set [3] (female MENX rats, MRI every 14 days) is “only a slight increase in tumor volume”. For the same compound, in data set [3] (female MENX rats, placebo 312), the “number of Ki67-positive cells per area, average, female rats” value was 134 cells per 100,000 mm^2. The “change in number of Ki67-positive cells versus placebo, male rats” value in data set [3] (male MENX rats) was −33.5%. Further, the “number of Ki67-positive cells per area, average, male rats” value in data set [3] (male MENX rats, placebo 375) is 250 cells per 100,000 mm^2. Moreover, in the data set with HA-SSTR3, the “Phosphorylation SSTR sites (HEK293-transfected): SSTR3—PS337/T341” value is given as “++++” and the “Phosphorylation SSTR sites (HEK293-transfected): SSTR3—PT438” value is “++++”.

Values taken from PMC10340464, “Identification of a Novel SSTR3 Full Agonist for the Treatment of Nonfunctioning Pituitary Adenomas” (Cancers, 2023).
